Usually LC50 stands for the concentration lethal to half of the exposed cells or organisms. Read a low LC50 as greater toxicity.

From ChEMBL document CHEMBL3044943, “Nematicidal prenylated flavanones from Phyllanthus niruri” (2008) come the findings set out here.

The test system of assay [1] is Meloidogyne incognita. The experiment in a line: Nematicidal activity against Meloidogyne incognita (root-knot nematode) second stage juveniles after 72 hr. The format is functional.
In assay [2] the test system is Rotylenchulus reniformis. Description: Nematicidal activity against Rotylenchulus reniformis (reniform nematode) after 72 hr. In kind it is functional.

≈ marks a conversion by molar mass, not a printed value.

Take `CC(C)=CCc1cccc2c1OC(c1ccccc1)CC2=O` (stereo not given): the LC50 was 70.9 mg/L (≈ 242 µM) in assay [1] and 103 mg/L (≈ 352 µM) in assay [2]. Take `CC(C)=CCc1cccc2c1OC(c1ccc(O)cc1)CC2=O` (stereo not given): the LC50 stood at 14.5 mg/L (≈ 47 µM) in assay [1] and 3.3 mg/L (≈ 10.7 µM) in assay [2]. Consider `CNC(=O)Oc1cccc2c1OC(C)(C)C2` [CARBOFURAN], for which the LC50 in assay [2] came out at 3.1 mg/L (≈ 14 µM).
